Laboratory results taken from patent publication US20140066431A1, “Benzoxazepines as Inhibitors of PI3K/mTOR and Methods of Their Use and Manufacture” (Exelixis, Inc., priority 2010, published 2014).

Molecular target: PI3Kα (Homo sapiens, UniProt P42336)
Assay: PI3K biochemical assay (ATP consumption, luciferase-luciferin)
Conditions: 1.5 nM enzyme, 1 μM ATP, 10 μM PIP2
Procedure: PI3Kα activity is measured as the percent of ATP consumed following the kinase reaction using luciferase-luciferin-coupled chemiluminescence. Reactions were conducted in 384-well white, medium binding microtiter plates (Greiner). Kinase reactions were initiated by combining test compounds, ATP, substrate (PIP2), and kinase in a 20 μL volume in a buffer solution. The standard PI3Kalpha assay buffer is composed 50 mM Tris, pH 7.5, 1 mM EGTA, 10 mM MgCl2, 1 mM DTT and 0.03% CHAPS. The standard assay concentrations for enzyme, ATP, and substrate are 1.5 nM, 1 μM, and 10 μM, respectively. The reaction mixture was incubated at ambient temperature for approximately 2 h. Following the kinase reaction, a 10 μL aliquot of luciferase-luciferin mix (Promega Kinase-Glo) was added and the chemiluminescence signal measured using a Victor2 plate reader (Perkin Elmer). Total ATP consumption was limited to 40-60% and IC50 values of control compounds correlate well with literature references. Substituting PI3Kα with PI3Kβ, PI3Kγ, or PI3Kδ, the inhibitory activity of the compounds for the other isoforms of I3K were measured.

PI3Kα, sequence (P42336 whole entry): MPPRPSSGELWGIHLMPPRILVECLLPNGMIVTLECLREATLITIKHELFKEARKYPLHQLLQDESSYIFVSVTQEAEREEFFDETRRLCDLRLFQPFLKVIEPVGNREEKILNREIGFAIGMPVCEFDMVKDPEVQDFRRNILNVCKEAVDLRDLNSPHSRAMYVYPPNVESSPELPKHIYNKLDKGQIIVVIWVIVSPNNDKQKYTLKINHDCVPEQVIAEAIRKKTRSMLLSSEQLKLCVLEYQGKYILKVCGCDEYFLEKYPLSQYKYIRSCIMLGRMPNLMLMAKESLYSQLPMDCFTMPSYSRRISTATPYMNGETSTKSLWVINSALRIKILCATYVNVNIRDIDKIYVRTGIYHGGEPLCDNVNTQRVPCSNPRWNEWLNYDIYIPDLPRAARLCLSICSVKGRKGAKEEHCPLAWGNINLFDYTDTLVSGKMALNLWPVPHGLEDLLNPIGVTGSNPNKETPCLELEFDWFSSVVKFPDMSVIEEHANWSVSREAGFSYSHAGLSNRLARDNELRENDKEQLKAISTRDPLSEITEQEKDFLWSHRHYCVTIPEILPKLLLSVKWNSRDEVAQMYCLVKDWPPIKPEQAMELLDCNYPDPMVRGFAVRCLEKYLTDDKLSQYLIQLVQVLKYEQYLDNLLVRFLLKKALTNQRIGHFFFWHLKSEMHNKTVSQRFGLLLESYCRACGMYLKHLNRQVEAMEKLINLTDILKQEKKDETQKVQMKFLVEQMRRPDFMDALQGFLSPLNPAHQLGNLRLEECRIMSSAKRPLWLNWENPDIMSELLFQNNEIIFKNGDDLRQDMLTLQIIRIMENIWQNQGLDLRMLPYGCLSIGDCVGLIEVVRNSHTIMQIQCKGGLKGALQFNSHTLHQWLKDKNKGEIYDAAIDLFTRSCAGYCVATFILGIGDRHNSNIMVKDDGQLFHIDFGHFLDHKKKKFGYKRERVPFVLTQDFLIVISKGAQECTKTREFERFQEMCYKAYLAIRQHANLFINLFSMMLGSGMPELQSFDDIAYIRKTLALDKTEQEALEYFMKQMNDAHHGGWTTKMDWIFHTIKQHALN
PI3Kα, sequence (P27986 whole entry partner): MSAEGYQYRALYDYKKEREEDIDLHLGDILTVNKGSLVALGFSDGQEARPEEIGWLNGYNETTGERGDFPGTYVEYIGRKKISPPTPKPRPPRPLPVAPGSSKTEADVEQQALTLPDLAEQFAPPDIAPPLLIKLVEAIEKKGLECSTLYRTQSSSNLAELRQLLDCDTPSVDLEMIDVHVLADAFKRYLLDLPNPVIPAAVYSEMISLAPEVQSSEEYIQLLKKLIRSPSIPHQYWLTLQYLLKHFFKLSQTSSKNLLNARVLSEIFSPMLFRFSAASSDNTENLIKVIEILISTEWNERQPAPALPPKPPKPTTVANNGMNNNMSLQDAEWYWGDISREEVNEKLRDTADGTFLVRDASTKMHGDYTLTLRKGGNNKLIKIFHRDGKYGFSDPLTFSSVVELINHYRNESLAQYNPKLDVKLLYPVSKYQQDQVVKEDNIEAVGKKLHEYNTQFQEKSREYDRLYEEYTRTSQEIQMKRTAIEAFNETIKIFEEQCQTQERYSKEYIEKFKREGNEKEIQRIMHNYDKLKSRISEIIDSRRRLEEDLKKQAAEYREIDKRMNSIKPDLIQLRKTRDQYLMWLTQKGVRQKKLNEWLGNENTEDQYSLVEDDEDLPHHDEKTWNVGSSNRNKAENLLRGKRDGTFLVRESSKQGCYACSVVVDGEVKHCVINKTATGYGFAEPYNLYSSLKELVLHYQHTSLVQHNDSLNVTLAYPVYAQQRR

SMILES | IC50 (PI3Kα biochemical assay)
CC1CCN(C(=O)N2CCOc3ccc(-c4cnc(N)cn4)cc3C2)CC1 [compound 4, 5-{4-[(4-methylpiperidin-1-yl)carbonyl]-2,3,4,5-tetrahydro-1,4-benzoxazepin-7-yl}pyrazin-2-amine] | not active
Cc1nc2ccc(-c3ccc4c(c3)CN(C(=O)N3[C@@H]5CC[C@H]3C[C@@H](N)C5)CCO4)cc2[nH]1 [compound 77, 8-{[7-(2-methyl-1H-benzimidazol-6-yl)-2,3-dihydro-1,4-benzoxazepin-4(5H)-yl]carbonyl}-8-azabicyclo[3.2.1]octan-3-(endo)-amine] | not active
Nc1cnc(-c2ccc3c(c2)CN(C(=O)N2CCC(C(F)(F)F)CC2)CCO3)cn1 [compound 6, 5-(4-{[4-(trifluoromethyl)piperidin-1-yl]carbonyl}-2,3,4,5-tetrahydro-1,4-benzoxazepin-7-yl)pyrazin-2-amine] | not active
CC1CCN(C(=O)N2CCOc3ccc(-c4ccc(N)nn4)cc3C2)CC1 [compound 1, 6-{4-[(4-methylpiperidin-1-yl)carbonyl]-2,3,4,5-tetrahydro-1,4-benzoxazepin-7-yl}pyridazin-3-amine] | not active
CC1CCN(C(=O)N2CCOc3ccc(-c4cc(N)[nH]n4)cc3C2)CC1 [compound 10, 3-{4-[(4-methylpiperidin-1-yl)carbonyl]-2,3,4,5-tetrahydro-1,4-benzoxazepin-7-yl}-1H-pyrazol-5-amine] | not active

Further lines, results first:

IC50 (PI3Kα biochemical assay) | SMILES
not active | Cc1nc2ccc(-c3ccc4c(c3)CN(C(=O)N3CCCCC3c3ccc(F)cc3C)CCO4)cc2[nH]1 (stereo not drawn) [compound 117, 4-{[2-(4-fluoro-2-methylphenyl)piperidin-1-yl]carbonyl}-7-(2-methyl-1H-benzimidazol-6-yl)-2,3,4,5-tetrahydro-1,4-benzoxazepine]
not active | Cc1nc2ccc(-c3ccc4c(c3)CN(C(=O)N3CCN(c5ccccc5F)CC3)CCO4)cc2[nH]1 [compound 165, 4-{[4-(2-fluorophenyl)piperazin-1-yl]carbonyl}-7-(2-methyl-1H-benzimidazol-6-yl)-2,3,4,5-tetrahydro-1,4-benzoxazepine]
not active | Cc1nc2ccc(-c3ccc4c(c3)CN(C(=O)N3CCN(Cc5c(F)cccc5Cl)CC3)CCO4)cc2[nH]1 [compound 152, 4-({4-[(2-chloro-6-fluoropheny)methyl]piperazin-1-yl}carbonyl)-7-(2-methyl-1H-benzimidazol-6-yl)-2,3,4,5-tetrahydro-1,4-benzoxazepine]
not active | Cc1nc2ccc(-c3ccc4c(c3)CN(C(=O)N3CCN(C)C(=O)C3)CCO4)cc2[nH]1 [compound 146, 1-methyl-4-{[7-(2-methyl-1H-benzimidazol-6-yl)-2,3-dihydro-1,4-benzoxazepin-4(5H)-yl]carbonyl}piperazin-2-one]
not active | Cc1nc2ccc(-c3ccc4c(c3)CN(C(=O)N3CCC(Cc5ccccc5)CC3)CCO4)cc2[nH]1 [compound 171]
not active | Cc1nc2ccc(-c3ccc4c(c3)CN(C(=O)NC3[C@H]5C[C@@H]6C[C@@H](C[C@H]3C6)C5)CCO4)cc2[nH]1 (stereo partly drawn) [compound 149, 7-(2-methyl-1H-benzimidazol-6-yl)-N-[(1r,3r,5R,7R)-tricyclo[3.3.1.1~3,7~]dec-2-yl]-2,3-dihydro-1,4-benzoxazepine-4(5H)-carboxamide]
not active | Cc1nc2ccc(-c3ccc4c(c3)CN(C(=O)N3CCC(O)(c5ccc(C(F)(F)F)cc5)CC3)CCO4)cc2[nH]1 [compound 141, 1-{[7-(2-methyl-1H-benzimidazol-6-yl)-2,3-dihydro-1,4-benzoxazepin-4(5H)-yl]carbonyl}-4-[4-(trifluoromethyl)phenyl]piperidin-4-ol]
